Where two headings read alike, the source gives them in different places.
Legend:
[1] = Sun exposure experiment in vials, HPLC analysis of hinokitiol; format: physicochemical
Protocol: HPLC analysis: HPLC systems include waters 2695 separation modules with auto sampler, waters 2996 photodiode array detector, Masslynx software and Sunfire™ C18 column (5 μm, 4.6×150 mm). […] Gradient mobile phase was adopted. […] Hinokitiol complex with citric acid was monitored at 320 nm. The column temperature was kept at 30° C. during the experiment. […] The vials were put on a rack. […] After sunlight exposure, rack and vials were immediately stored at 4° C. or subsamples were taken for HPLC analysis. Visual observation was recorded before subsamples were taken. Vials were vortexed very well before subsamples were taken. Triplicates were carried out for each sample. All sun light exposure in the later studies was the same unless stated. Temperature in all this studies varied between 75 to 95° F.

[2] = tested on: 2-week-old cucumber plants; conditions: in vivo
Protocol: Ethoxylated fatty esters (e.g., polyethylene 20 sorbitan monooleate, polyethylene 20 sorbitan monolaurate), ethoxylated alcohols (e.g., Genapol UD-80, UD 110, O-100 and O-200, Clariant Corporation) were chosen for phytotoxic screening in this study. […] These formulations were diluted 100 times with tap water and then sprayed on 2-week-old cucumber plants. […] Precipitation would happen to Oxylignin (sodium salt) when pH reached to 8.0 and then increased with pH.

| Substance | Degradation of hinokitiol (%) [1] [%] | degradation of hinokitiol in the formulation compared with other UV protection agents [1] | Degradation of hinokitiol (%) ([1]; pH 7.4) | Degradation of hinokitiol (%) ([1]; pH 8.29) | Degradation of hinokitiol (%) ([1]; pH 9.61) | phytotoxicity on 2-week-old cucumber plants ([2]; pH 10) | phytotoxicity (shown or not) [2] |
| --- | --- | --- | --- | --- | --- | --- | --- |
| Humic acid | 40 ± 1 | much slower | 40 ± 3 | 30 ± 2 | 21 ± 4 | no obvious phytotoxicity |  |
| polyethylene 20 sorbitan monooleate |  |  |  |  |  |  | did not show any obvious phytotoxicity |
